Reference: article PMC3513267 (Journal of molecular biology, 2011)
Like-named read-outs stand apart in the source and are kept apart here.

Tests used:
[1] = cited from earlier work
[2] = molecular target: PKA-C (Mus musculus, UniProt P05132); assay: PKA-C catalyzed steady-state phosphorylation assay; type: biochemical; conditions: for catalytic efficiency kcat/Km: spectrophotometric, 340 nm, 299 K, 50 mM MOPS pH 7.0, 20 mM DTT, 10 mM MgCl2, 5.0 mM ATP, 1.0 mM PEP, 0.2 mM NADH, triplicate
[3] = NMR secondary structure; conditions: in the presence of DPC micelles

Substance | R-state population ([1]; in DPC micelles) | phosphorylation efficiency (in words) ([2]; PLN in DPC micelles, most helical construct studied) | catalytic efficiency kcat/Km ([2]; full-length PLN in DPC micelles) | secondary structure (CSI and SSP scores) [3] | R-state population ([1]; free in solution) | catalytic efficiency kcat/Km ([2]; absence of membranes)
PLN: synthetic and recombinant versions of full-length PLN with no lipidation; membrane protein that inhibits SERCA | ~ 4% | the phosphorylation efficiency is drastically lower | ~ 0.06 µM^−1s^−1 | – | – | –
PLN1–20: peptide corresponding to the cytoplasmic domain Ia of phospholamban (MEKVQYLTRSAIRRASTIEM; UniProt P26678 1-20, looked up, fragment) | – | – | – | the peptide forms a stable α-helix | 100% | ~ 0.6 µM^−1s^−1
